Two molecules from patent publication US12281057B2 (VERTEX PHARMACEUTICALS INCORPORATED, priority 2017, dated 2025) can be followed below.

This assay deals with truncated form of human NaV 1.8 with full channel activity (Homo sapiens, UniProt Q9Y5Y9). The assay can be described thus: E-VIPR Assay Method B for detecting and measuring Nav inhibition (HEK cells, membrane potential FRET dyes, electrical stimulation). The assay is classed as cell-based. The note with it: HEK cells expressing human NaV 1.8, Table 20B, read-out: Nav 1.8 MedChem Optical Assay EVIPR Assay Method B HS IC50. An excerpt:
[formula] where X is the ratio response of the test compound. […] E-VIPR Assay Method B for Detecting and Measuring Nav Inhibition Properties Sodium ion channels are voltage-dependent proteins that can be activated by inducing membrane voltage changes by applying electric fields. The electrical stimulation instrument and methods of use, referred to as E-VIPR, are described in International Publication No. WO 2002/008748 A3 and C.-J. Huang et al. Characterization of voltage-gated sodium channel blockers by electrical stimulation and fluorescence detection of membrane potential, 24 Nature Biotech. 439-46 (2006), both of which are incorporated by reference in their entirety. The instrument comprises a microtiter plate handler, an optical system for exciting the coumarin dye while simultaneously recording the coumarin and oxonol emissions, a waveform generator, a current- or voltage-controlled amplifier, and parallel electrode pairs that are inserted into assay plate wells. Under integrated computer control, this instrument passes user-programmed electrical stimulus protocols to cells within the wells of the microtiter plate. […] Sigma #F4135), 1% NEAA (Non-Essential Amino Acids, Life Tech #11140), 1% HEPES (Life Tech #15630), 1% Pen-Strep (Penicillin-Streptomycin; […] Cells were expanded in vented cap flasks, with 95% humidity and 5% CO2. Reagents and Stock Solutions: • 100 mg/mL Pluronic F-127 (Sigma #P2443), in dry DMSO • Compound Plates: […] 5% KIR 2.1 Bacmam virus (produced in-house), prepared as described in Section 3.3 of J. A. Fornwald et al., Gene Expression in Mammalian Cells Using BacMam, a Modified Baculovirus System, 1350 Methods in Molecular Biology 95-116 (2016), the entire contents of which are incorporated by reference. • 5 mM DiSBAC6(3) (a voltage sensitive oxonol acceptor) (Aurora #00-100-010) in dry DMSO • 5 mM CC2-DMPE (a membrane-bound coumarin phospholipid FRET donor) (Aurora #00-100-008) in dry DMSO • 89 mM VABSC-1 in H2O. […] The solution was made by adding 10% Pluronic F127 stock equal to combined volumes of CC2-DMPE and DiSBAC6(3). The order of preparation was first mix Pluronic and CC2-DMPE, then add DiSBAC6(3), then while vortexing add Bath1/β-Cyclodextrin. […] Assay Protocol: […] Final DMSO concentration for all wells in the assay was 0.625% (0.75% DMSO was supplemented to the Compound Loading Buffer for a final DMSO concentration of 0.625%). 2) Hexyl Dye Solution was prepared. 3) Cell plates were prepared. On the day of the assay, the media was aspirated, and the cells were washed three times with 80 μL of Bath-1 buffer, maintaining 25 μL residual volume in each well. 4) 25 μL per well of Hexyl Dye Solution was dispensed into the cell plates. The cells were incubated for 20 minutes at room temp or ambient conditions in darkness. 5) 80 μL per well of Compound Loading Buffer was dispensed into compound plates. […] The mixture was incubated for 30 minutes at room temp/ambient conditions. […] A pre-stimulus recording was performed for 0.5 seconds to obtain the un-stimulated intensities baseline. The stimulatory waveform was followed by 0.5 seconds of post-stimulation recording to examine the relaxation to the resting state. Data Analysis: Data were analyzed and reported as normalized ratios of emission intensities measured in the 460 nm and 580 nm channels. The response as a function of time was reported as the ratios obtained using the following formula: [formula] The data were further reduced by calculating the initial (Ri) and final (Rf) ratios. These were the average ratio values during part or all of the pre-stimulation period and during sample points during the stimulation period. The fluorescence ratio (Rf/Ri) was then calculated and reported as a function of time. Control responses were obtained by performing assays in the presence of the positive control, and in the absence of pharmacological agents (DMSO vehicle negative control). Responses to the negative (N) and positive (P) controls were calculated as above. […]

Sequence of truncated form of human NaV 1.8 with full channel activity (Q9Y5Y9 126-1722 limits assumed): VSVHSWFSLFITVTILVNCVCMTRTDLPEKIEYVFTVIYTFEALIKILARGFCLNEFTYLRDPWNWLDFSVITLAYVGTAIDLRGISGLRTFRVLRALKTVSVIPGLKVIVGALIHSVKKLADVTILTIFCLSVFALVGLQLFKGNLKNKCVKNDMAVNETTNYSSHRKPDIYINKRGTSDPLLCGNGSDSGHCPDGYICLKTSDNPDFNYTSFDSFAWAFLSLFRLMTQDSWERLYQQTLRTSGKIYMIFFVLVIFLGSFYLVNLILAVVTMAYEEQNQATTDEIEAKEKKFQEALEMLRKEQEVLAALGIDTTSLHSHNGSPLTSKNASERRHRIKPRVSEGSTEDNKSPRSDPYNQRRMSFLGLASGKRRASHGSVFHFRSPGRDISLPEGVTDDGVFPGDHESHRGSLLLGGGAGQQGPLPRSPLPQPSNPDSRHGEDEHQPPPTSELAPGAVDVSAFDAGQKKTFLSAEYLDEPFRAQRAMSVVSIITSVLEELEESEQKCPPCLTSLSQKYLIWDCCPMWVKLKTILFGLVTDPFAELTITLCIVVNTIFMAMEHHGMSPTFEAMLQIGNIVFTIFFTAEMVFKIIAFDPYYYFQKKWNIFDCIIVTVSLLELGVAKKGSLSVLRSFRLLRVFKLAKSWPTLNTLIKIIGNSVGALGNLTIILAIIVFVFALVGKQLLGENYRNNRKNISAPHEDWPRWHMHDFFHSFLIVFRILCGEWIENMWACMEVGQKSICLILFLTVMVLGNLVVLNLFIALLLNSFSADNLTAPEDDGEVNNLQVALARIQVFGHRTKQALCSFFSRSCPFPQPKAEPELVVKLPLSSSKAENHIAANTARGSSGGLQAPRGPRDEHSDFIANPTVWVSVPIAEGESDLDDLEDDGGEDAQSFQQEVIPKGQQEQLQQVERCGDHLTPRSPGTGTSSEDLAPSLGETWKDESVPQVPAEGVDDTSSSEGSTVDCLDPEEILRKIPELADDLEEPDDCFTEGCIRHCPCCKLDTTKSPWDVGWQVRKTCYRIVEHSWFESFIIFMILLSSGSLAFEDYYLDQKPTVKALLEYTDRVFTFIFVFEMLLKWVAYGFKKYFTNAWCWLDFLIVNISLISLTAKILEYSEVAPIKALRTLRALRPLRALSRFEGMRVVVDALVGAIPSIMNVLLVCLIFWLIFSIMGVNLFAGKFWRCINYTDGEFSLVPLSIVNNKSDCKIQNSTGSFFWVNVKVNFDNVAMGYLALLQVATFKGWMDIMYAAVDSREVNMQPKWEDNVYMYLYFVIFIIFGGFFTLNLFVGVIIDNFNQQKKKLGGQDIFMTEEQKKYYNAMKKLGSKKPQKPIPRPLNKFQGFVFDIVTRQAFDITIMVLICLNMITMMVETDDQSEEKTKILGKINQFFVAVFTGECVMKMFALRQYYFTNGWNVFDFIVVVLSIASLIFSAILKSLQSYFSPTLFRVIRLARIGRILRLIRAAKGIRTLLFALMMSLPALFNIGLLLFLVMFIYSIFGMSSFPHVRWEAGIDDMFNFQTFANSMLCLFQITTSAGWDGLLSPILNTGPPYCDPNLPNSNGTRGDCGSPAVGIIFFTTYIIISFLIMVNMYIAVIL

For the molecule `COc1ccc(Oc2cc(C(F)(F)F)ccc2C(=O)Nc2cccc(C(N)=O)c2)c(OC)c1` [Compound 301, N-(3-carbamoylphenyl)-2-[2,4-(dimethoxy)phenoxy]-4-(trifluoromethyl)benzamide], the IC50 came to 0.057 µM.

Consider `COc1cc(Cl)ccc1Oc1cc(C(F)(F)F)ccc1C(=O)Nc1cccc(C(N)=O)c1` [Compound 302, N-(3-carbamoylphenyl)-2-[4-chloro-2-(methoxy)phenoxy]-4-(trifluoromethyl)benzamide], for which the IC50 turned out to be 0.026 µM.
